Laboratory results from PMC9709778 (RSC Chemical Biology, 2022).

Target: amyloid β (Aβ42) (Homo sapiens, UniProt P05067)
Assay: 1H-15N SOFAST-HMQC NMR chemical shift perturbation
Assay type: biochemical

amyloid β (Aβ42), sequence (P05067 672-713): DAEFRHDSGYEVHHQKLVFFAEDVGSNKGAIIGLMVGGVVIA

COc1cc(OC)c(C(=O)/C=C/c2ccccc2)c(O)c1O [DDC, 2′,3′-dihydroxy-4′,6′-dimethoxychalcone]
IC50: 10.6 ± 1.3 µM
